For three compounds, MIC results are on record in US5593984A, “Cephalosporin derivatives” (Yuhan Corporation, priority 1992, dated 1997).

What all share (format): cell-based
Assay [1] has as its system Ps. aeruginosa ATCC 10145. As to the kind of experiment: MIC by agar dilution, Ps. aeruginosa ATCC 10145. As to conditions: Pseudomonas aeruginosa, ATCC10145, 17 h, Mueller-Hinton agar, read-out: Minimal Inhibitory Concentration (MIC). An outline of the steps:
(§1)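 Agar dilution in Mueller-Hinton agar with two-fold compound dilutions. Each strain is inoculated at 10^6 CFU per ml and incubated at 35°-37° C. for 17±1 hours. Ceftazidime and cefotaxime serve as controls.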

Assay [2] deals with Ser. marcescens IFO 12648. Nature of the assay: MIC by agar dilution, Ser. marcescens IFO 12648. The note with it: Serratia marcescens, IFO12648, 17 h; Ser. marcescens IFO 12648; agar dilution, Mueller-Hinton agar; read-out: Minimal Inhibitory Concentration (MIC). An outline of the steps: as §1
In a further assay the test system is M. morganii DY-1. Nature of the assay: MIC by agar dilution, M. morganii DY-1. As to conditions: Morganella morganii, DY1, 17 h; M. morganii DY-1; agar dilution, Mueller-Hinton agar; read-out: Minimal Inhibitory Concentration (MIC). In short, it runs like this: as §1
The next assay has as its system Ps. aeruginosa DY-2. Nature of the assay: MIC by agar dilution, Ps. aeruginosa DY-2. The note with it: Pseudomonas aeruginosa, DY2, 17 h; Ps. aeruginosa DY-2; agar dilution, Mueller-Hinton agar; read-out: Minimal Inhibitory Concentration (MIC). In short, it runs like this:
as §1

For a further assay, the system named is Staph. aureus C-57. Nature of the assay: MIC by agar dilution, Staph. aureus C-57. The note with it: Staphylococcus aureus, C57, 17 h, Mueller-Hinton agar, read-out: Minimal Inhibitory Concentration (MIC). In short, it runs like this: as §1
A further assay relates to Staph. aureus C-5216. Nature of the assay: MIC by agar dilution, Staph. aureus C-5216. The note with it: Staphylococcus aureus, C5216, 17 h, Mueller-Hinton agar, read-out: Minimal Inhibitory Concentration (MIC). An outline of the steps:
as §1

For another assay, the system named is Staph. aureus ATCC 6538P. Nature of the assay: MIC by agar dilution, Staph. aureus ATCC 6538P. As to conditions: Staphylococcus aureus, ATCC6538P, 17 h; Staph. aureus ATCC 6538P; agar dilution, Mueller-Hinton agar; read-out: Minimal Inhibitory Concentration (MIC). In short, it runs like this:
as §1

The subject of a further assay is K. pneumoniae NCTC 9632. As to the kind of experiment: MIC by agar dilution, K. pneumoniae NCTC 9632. As to conditions: Klebsiella pneumoniae, NCTC9632, 17 h; K. pneumoniae NCTC 9632; agar dilution, Mueller-Hinton agar; read-out: Minimal Inhibitory Concentration (MIC). An outline of the steps: as §1
For the next assay, the system named is Staph. aureus C-5113. Nature of the assay: MIC by agar dilution, Staph. aureus C-5113. As to conditions: Staphylococcus aureus, C5113, 17 h, Mueller-Hinton agar, read-out: Minimal Inhibitory Concentration (MIC). An outline of the steps:
as §1

The subject of a further assay is Staph. aureus Smith. Nature of the assay: MIC by agar dilution, Staph. aureus Smith. The note with it: Staphylococcus aureus, 17 h, Mueller-Hinton agar, read-out: Minimal Inhibitory Concentration (MIC). In short, it runs like this:
as §1

The test system of another assay is B. subtilis ATCC 6633. As to the kind of experiment: MIC by agar dilution, B. subtilis ATCC 6633. As to conditions: Bacillus subtilis, ATCC6633, 17 h; B. subtilis ATCC 6633; agar dilution, Mueller-Hinton agar; read-out: Minimal Inhibitory Concentration (MIC). An outline of the steps:
as §1

Assay [3] concerns S. epidermidis ATCC 12228. As to the kind of experiment: MIC by agar dilution, S. epidermidis ATCC 12228. The note with it: Staphylococcus epidermidis, ATCC12228, 17 h; S. epidermidis ATCC 12228; agar dilution, Mueller-Hinton agar; read-out: Minimal Inhibitory Concentration (MIC). An outline of the steps:
as §1

A further assay concerns Prov. stuartii IFO 12930. Nature of the assay: MIC by agar dilution, Prov. stuartii IFO 12930. As to conditions: Providencia stuartii, IFO12930, 17 h, Mueller-Hinton agar, read-out: Minimal Inhibitory Concentration (MIC). An outline of the steps:
as §1

The next assay has as its system Ent. cloacae IFO 13535. Nature of the assay: MIC by agar dilution, Ent. cloacae IFO 13535. The note with it: Enterobacter cloacae, IFO13535, 17 h; Ent. cloacae IFO 13535; agar dilution, Mueller-Hinton agar; read-out: Minimal Inhibitory Concentration (MIC). An outline of the steps:
as §1

In assay [4] the test system is Ps. aeruginosa NCTC 10490. As to the kind of experiment: MIC by agar dilution, Ps. aeruginosa NCTC 10490. As to conditions: Pseudomonas aeruginosa, NCTC10490, 17 h, Mueller-Hinton agar, read-out: Minimal Inhibitory Concentration (MIC). In short, it runs like this: as §1
Another assay concerns Ent. aerogenes IFO 12979. As to the kind of experiment: MIC by agar dilution, Ent. aerogenes IFO 12979. The note with it: Klebsiella aerogenes, IFO12979, 17 h, Mueller-Hinton agar, read-out: Minimal Inhibitory Concentration (MIC). In short, it runs like this:
as §1

A further assay relates to E. coli No. 29. As to the kind of experiment: MIC by agar dilution, E. coli No. 29. The note with it: Escherichia coli, 17 h; E. coli No. 29; agar dilution, Mueller-Hinton agar; read-out: Minimal Inhibitory Concentration (MIC). In short, it runs like this: as §1
The next assay has as its system E. coli DY-1. Nature of the assay: MIC by agar dilution, E. coli DY-1. As to conditions: Escherichia coli, DY1, 17 h; E. coli DY-1; agar dilution, Mueller-Hinton agar; read-out: Minimal Inhibitory Concentration (MIC). An outline of the steps: as §1
The subject of a further assay is E. coli NIHJ JC-2. Nature of the assay: MIC by agar dilution, E. coli NIHJ JC-2. As to conditions: Escherichia coli, NIHJJC2, 17 h; E. coli NIHJ JC-2; agar dilution, Mueller-Hinton agar; read-out: Minimal Inhibitory Concentration (MIC). In short, it runs like this:
as §1

The next assay has as its system P. vulgaris NCTC 8313. As to the kind of experiment: MIC by agar dilution, P. vulgaris NCTC 8313. The note with it: Proteus vulgaris, NCTC8313, 17 h; P. vulgaris NCTC 8313; agar dilution, Mueller-Hinton agar; read-out: Minimal Inhibitory Concentration (MIC). In short, it runs like this:
as §1

The structures appear in SMILES notation. Values after ≈ are worked out from the molar mass of the structure shown.

Regarding `CCO/N=C(\C(=O)N[C@@H]1C(=O)N2C(C(=O)[O-])=C(C[n+]3ccn4c(C(C)=O)cc(Cl)c4c3)CS[C@H]12)c1csc(N)n1` [Ex. 35, 7-β-[(Z)-2-(2-aminothiazol-4-yl)-2-ethoxyiminoacetamido]-3-(6-acetyl-8-chloropyrrolo[1,2-a]pyrazinium-2-yl)methyl-3-cephem-4-carboxylate], the MIC in assay [1] turned out to be 6.25 µg/mL (≈ 10.3 µM); in [2] it was 0.2 µg/mL (≈ 0.331 µM); in the assay with M. morganii DY-1, 0.2 µg/mL (≈ 0.331 µM); in the assay with Ps. aeruginosa DY-2, 25 µg/mL (≈ 41.4 µM); in the assay with Staph. aureus C-57, 25 µg/mL (≈ 41.4 µM); in the assay with Staph. aureus C-5216, 1.56 µg/mL (≈ 2.58 µM). In addition, the MIC with Staph. aureus ATCC 6538P stood at 1.56 µg/mL (≈ 2.58 µM); in the assay with K. pneumoniae NCTC 9632, 0.1 µg/mL (≈ 0.166 µM); in the assay with Staph. aureus C-5113 it was 1.56 µg/mL (≈ 2.58 µM); with Staph. aureus Smith, 1.56 µg/mL (≈ 2.58 µM); in the assay on B. subtilis ATCC 6633, 0.39 µg/mL (≈ 0.646 µM); in [3], 0.1 µg/mL (≈ 0.166 µM). For the same compound, the MIC is 0.1 µg/mL (≈ 0.166 µM) with Prov. stuartii IFO 12930; 0.39 µg/mL (≈ 0.646 µM) with Ent. cloacae IFO 13535; 3.13 µg/mL (≈ 5.18 µM) in assay [4]; 0.05 µg/mL (≈ 0.0828 µM) in the assay with Ent. aerogenes IFO 12979; 0.05 µg/mL (≈ 0.0828 µM) in the assay on E. coli No. 29; 0.025 µg/mL (≈ 0.0414 µM) with E. coli DY-1. The MIC in the assay with E. coli NIHJ JC-2 turned out to be 0.1 µg/mL (≈ 0.166 µM); in the assay on P. vulgaris NCTC 8313, 0.012 µg/mL (≈ 0.0199 µM).

Regarding `Nc1nc(C(=NOCC(=O)O)C(=O)NC2C(=O)N3C(C(=O)[O-])=C(C[n+]4ccn5c(CO)ccc5c4)CSC23)cs1` (stereo not drawn) [Ex. 23, 7-β-[(Z)-2-(2-aminothiazol-4-yl)-2-carboxymethoxyiminoacetamido]-3-(6-hydroxymethylpyrrolo[1,2-a]pyrazinium-2-yl)methyl-3-cephem-4-carboxylate], the MIC in [1] was 0.78 µg/mL (≈ 1.33 µM); in [2], 0.012 µg/mL (≈ 0.0204 µM); with M. morganii DY-1 it was 0.012 µg/mL (≈ 0.0204 µM); in the assay with Ps. aeruginosa DY-2, 3.13 µg/mL (≈ 5.33 µM); in the assay with Staph. aureus C-57 it was 100 µg/mL (≈ 170 µM); in the assay on Staph. aureus C-5216, 12.5 µg/mL (≈ 21.3 µM). Moreover, the MIC in the assay on Staph. aureus ATCC 6538P was 1.56 µg/mL (≈ 2.65 µM); in the assay with K. pneumoniae NCTC 9632 it was 0.012 µg/mL (≈ 0.0204 µM); in the assay on Staph. aureus C-5113 it was 6.25 µg/mL (≈ 10.6 µM); in the assay with Staph. aureus Smith, 6.25 µg/mL (≈ 10.6 µM); with B. subtilis ATCC 6633, 0.78 µg/mL (≈ 1.33 µM); in assay [3] it was 0.39 µg/mL (≈ 0.664 µM). Also, the MIC in the assay with Prov. stuartii IFO 12930 was at most 0.006 µg/mL; in the assay on Ent. cloacae IFO 13535, 0.2 µg/mL (≈ 0.34 µM); in assay [4], 0.39 µg/mL (≈ 0.664 µM); in the assay on Ent. aerogenes IFO 12979, 0.012 µg/mL (≈ 0.0204 µM); in the assay with E. coli No. 29, 0.025 µg/mL (≈ 0.0425 µM); in the assay with E. coli DY-1, 0.025 µg/mL (≈ 0.0425 µM). The MIC with E. coli NIHJ JC-2 is 0.025 µg/mL (≈ 0.0425 µM); with P. vulgaris NCTC 8313, at most 0.006 µg/mL.

Regarding `CON=C(C(=O)NC1C(=O)N2C(C(=O)[O-])=C(C[n+]3ccn4c(SCCN)ccc4c3)CSC12)c1csc(N)n1` (stereo not drawn) [Ex. 27, 7-β-[(Z)-2-(2-aminothiazol-4-yl)2-methoxyiminoacetamido]-3-[6-(2-aminoethylthio)pyrrolo[1,2-a]pyrazinium-2-yl]methyl-3-cephem-4-carboxylate], the MIC was determined as 0.78 µg/mL (≈ 1.32 µM) in assay [1]; 0.012 µg/mL (≈ 0.0204 µM) in [2]; 0.012 µg/mL (≈ 0.0204 µM) in the assay on M. morganii DY-1; 1.56 µg/mL (≈ 2.65 µM) with Ps. aeruginosa DY-2; 100 µg/mL (≈ 170 µM) in the assay on Staph. aureus C-57; 0.78 µg/mL (≈ 1.32 µM) in the assay with Staph. aureus C-5216. Besides, the MIC in the assay with Staph. aureus ATCC 6538P was 0.2 µg/mL (≈ 0.34 µM); in the assay on K. pneumoniae NCTC 9632, 0.012 µg/mL (≈ 0.0204 µM); in the assay with Staph. aureus C-5113, 0.78 µg/mL (≈ 1.32 µM); with Staph. aureus Smith it was 0.78 µg/mL (≈ 1.32 µM); with B. subtilis ATCC 6633, 0.1 µg/mL (≈ 0.17 µM); in assay [3] it was 0.05 µg/mL (≈ 0.0849 µM). Besides, the MIC with Prov. stuartii IFO 12930 is at most 0.006 µg/mL; in the assay on Ent. cloacae IFO 13535, 0.1 µg/mL (≈ 0.17 µM); in assay [4] it was 0.2 µg/mL (≈ 0.34 µM); in the assay with Ent. aerogenes IFO 12979, at most 0.006 µg/mL; in the assay on E. coli No. 29, at most 0.006 µg/mL; in the assay with E. coli DY-1 it was at most 0.006 µg/mL. In addition, the MIC in the assay on E. coli NIHJ JC-2 and in the assay with P. vulgaris NCTC 8313 was at most 0.006 µg/mL throughout.
